The values that follow come from PMC5754411 (Cancer Chemotherapy and Pharmacology, 2017).

Like-named read-outs stand apart in the source and are kept apart here.

Details of data set [1]: method as in PMID 28303528. The conditions noted are these: humans, cited from earlier work.
A further data set can be described thus: clinical. The conditions noted are these: plasma. As for the experimental part: Signed and dated written informed consent was obtained from each patient before participation in the study and before the performance of any procedures. After informed consent was obtained, eligible participants were given the choice to be admitted to the clinical research unit on day − 1 or on day 1. A summary of the study design can be found in Fig. 1. […] Subjects continued fasting until 2 h after the start of the IV infusion, at which time a non-standardised light meal was served. The radiolabelled dose contained approximately 100 nCi (3.7 kBq) radioactivity and was administered into one arm of the subject; the contralateral arm was used for pharmacokinetic sampling and clinical laboratory blood draws. The syringe for IV drug administration was connected to a Perfusor Space Infusion Pump (B. Braun), which was set to administer 7 mL in 15 min. Blood samples were taken pre-dose and at 1, 1.5, 2 (just before start of IV infusion), 2.125 (halfway through the IV infusion), 2.25 (just before end of infusion), 2.33, 2.66, 3, 4, 6, and 12 h. Sampling was done on each morning of days 2, 3, 4, 5, 7, 9, 11, 13, 15, and 22. Plasma was divided in two sets: one set was sent to Xceleron Inc. (Germantown, MD, USA) for the determination of plasma concentrations of the ^14C-microtracer by AMS, and the other set was stored at the Antoni van Leeuwenhoek Hospital until it received pharmacokinetic analysis at the Good Laboratory Practice–licensed laboratory of the pharmacy. Plasma was separated from blood by centrifugation (3,000 rpm, 15 min, 4 °C) and was stored frozen at ≤ − 70 °C in polypropylene tubes before and after analysis. […] Vital signs assessments, haematology assessment, and blood chemistry assessments were done frequently to make sure that the patients were still in sufficient condition to remain on treatment. […] The study was approved by the local independent ethics committee and was conducted in accordance with local regulations, the Declaration of Helsinki, and International Conference on Harmonisation Good Clinical Practice Guidelines.
In brief, separation was carried out using an HPLC Acquity I Class pump (Waters, Milford, MA, USA) supplied with a SunFire C18 column (50 mm × 2.1 mm, 5 µm, Waters). Gradient elution was applied using 20 mM ammonium acetate in water (mobile phase A) and 0.1% formic acid in acetonitrile-methanol (50:50, v/v; mobile phase B). Each batch of experimental samples was run against freshly prepared calibration standards. Replicate quality control samples at three concentrations were stored and analysed alongside study samples. The analytical range was from 1 to 500 ng/mL.
Total ^14C-radioactivity concentrations in plasma samples were determined using AMS. Plasma samples were directly aliquoted into tubes containing copper oxide powder (CuO). The samples were graphitised and analysed by a Single Stage Accelerator Mass Spectrometer (SSAMS) 250 kV system (National Electrostatics Corp., Middleton, WI, USA). […] Samples were analysed by an Agilent 1200 HPLC system (Agilent Technologies, Palo Alto, CA, USA) equipped with a wavelength UV detector set to 254 nm. Separation was achieved using a Phenomenex Kinetex 2.6 µ biphenyl column (100 Å, 100 × 3.0 mm). Mobile phase A and B consisted of 20 mM ammonium acetate in water and 0.1% formic acid in acetonitrile–methanol (50:50, v/v), respectively. Column oven temperature was set at 40 °C, and run-time was 18 min. […] The fractions were graphitised and analysed by SSAMS. Each batch of experimental samples was run against freshly prepared calibration standards at seven concentrations in duplicates. Replicate quality control samples at three concentrations were stored and also analysed alongside study samples. Finally, F po was calculated as the ratio of the dose-normalised AUC of the oral dose to the IV dose.

For data set [2] the following is noted: Sprague–Dawley rats; ref data not published; cited from earlier work.
For data set [3] the following is noted: beagle dogs; ref data not published; cited from earlier work.
The conditions of data set [4]: cited from earlier work.

With `O=C(O)c1cccc2cn(-c3ccc(C4CCCNC4)cc3)nc12` (centres unmarked) [M1], the “Presence of metabolite in circulation” value in data set [1] was “substantially present in circulation”.
A word on the bioavailability: it is the share of a dose that reaches the circulation, judged against a reference dose that is usually intravenous. High values mean good availability, low ones poor availability. For orientation: AUC(0-inf) means the area under the concentration-time curve extrapolated to infinity. What is called AUC(0-t) is exposure summed from dosing to a finite time, without extrapolation to infinity. Higher therefore signals more exposure. One may read the Cmax as the maximum level reached in the sampled fluid or tissue. Usually half-life stands for how long it takes for the measured level to halve. Low values mean fast loss, high ones slow loss. Turning to `NC(=O)c1cccc2cn(-c3ccc([C@@H]4CCCNC4)cc3)nc12` [niraparib], the bioavailability in the data set “clinical” (human, oral, 300 mg) came out at 72.7%. Also, the AUC(0-inf) in the data set “clinical” (human, po, 300 mg) came out at 47400 ng·h/mL. In “clinical” (human, po, 300 mg), this compound had an AUC(0-t) of 46900 ng·h/mL. Moreover, the Cmax in the data set “clinical” (human, po, 300 mg) turned out to be 1270 ng/mL. In addition, the t max in the data set “clinical” (human, po, 300 mg, t max, oral 300 mg niraparib, n = 6, median and range) was 4 h; in “clinical” (oral 300 mg niraparib, n = 6, median and range), 4.01 (3.07–6.03) h; in data set [4] (previous phase I dose-escalation study, range 1.5–4.1 h), “around 3.1 h”. The half-life in the data set “clinical” (human, po, 300 mg, t ½, oral 300 mg niraparib, n = 6, sampling 22 days) was ~95.6 h. The “Dose recovered as the parent compound in faeces” value in data set [1] (oral radiolabelled niraparib) is given as “approximately 20%”. Besides, the “Total orally administered dose recovered in excreta” value in data set [1] (urine and faeces, radiolabelled niraparib) is listed as “approximately 90%”. Besides, the F po in data set [2] is listed as 27%; in data set [3] it was 57%. For the same compound, the “t ½” value in data set [4] (previous study, shorter sampling period) was 36.2 h.
